The values that follow come from publication PMC5408667, “A structural and functional analogue of a Bowman–Birk-type protease inhibitor from Odorrana schmackeri” (Bioscience Reports, 2017).

One series concerns the target T1, Tryptase (Homo sapiens, UniProt Q15661).
T1 construct: purchased Calbiochem, U.K
Briefly: Tryptase inhibition assay. The series is classed as biochemical.

Another series addresses T2, Trypsin (Bos taurus, UniProt P00760).
T2 construct: gene PRSS1
T2 sequence (P00760 24-246): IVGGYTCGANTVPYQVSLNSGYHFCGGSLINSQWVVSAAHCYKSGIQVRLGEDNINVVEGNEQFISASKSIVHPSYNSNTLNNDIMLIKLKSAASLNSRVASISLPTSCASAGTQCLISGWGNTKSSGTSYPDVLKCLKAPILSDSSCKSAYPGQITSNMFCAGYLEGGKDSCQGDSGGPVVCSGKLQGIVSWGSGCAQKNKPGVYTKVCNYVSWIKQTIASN
Briefly: Trypsin inhibition assay (synthetic peptides, Morison plot). The conditions noted are these: substrate Phe-Pro-Arg-NHMec 50 μM, 37°C. Type of series: biochemical. On the procedure: Trypsin (10 μl from 0.1 μM stock solution in 1 mM HCl), was added to the wells of a microtitre plate containing substrate (Phe-Pro-Arg-NHMec) (50 μM) and synthetic peptide replicates (0.1–100 μM) in 10 mM phosphate buffer, pH 7.4, containing 2.7 mM KCl and 137 mM NaCl (final volume 210 μl).
(§1) Each determination was carried out in triplicate. The rate of hydrolysis of substrate was monitored continuously, at 37°C, by measuring the rate of increase in fluorescence due to production of 7-amino-4-methylcoumarin (NH2Mec) at 460 nm (excitation 360 nm) in a CytoFluor® multi-well plate reader Series 4000 spectrofluorimeter.
For potent, slow, tight-binding inhibition, the Morison equation was used to determine the inhibition constant Ki(app) by fitting the kinetic data to the equation below: (1) Vi/V0 = 1 − {[E]0 + [I] + Ki(app) − ([E]0 + [I] + Ki(app))^2−4 × [E]0 × [I]/2 × [E]0} […]
This kinetic treatment was used for the inhibition of trypsin by OSTI. Since the inhibition studies were performed in the presence of competing substrate, the true Ki value was calculated from Ki(app) using eqn (2). For trypsin, a fixed substrate concentration [S] of 50 μM was used, for these inhibition studies and in a separate experiment (performed using identical buffer and temperature conditions),a value of 73.29 μM was determined for the Michaelis constant KM, for substrate hydrolysis in the absence of OSTI. […]

Series [1] in a line: Determination of peptide secondary structures using CD analysis. The series is classed as physicochemical. The procedure: CD measurements were performed with a JASCO J-815 CD spectrometer (Jasco, Essex, U.K.) at room temperature (20–25°C). Each peptide was dissolved in (a) water and (b) 50% (v/v) trifluoroethanol (TFE)-water to reach a concentration of 50 μM before being transferred and measured in a 0.1 cm high precision quartz cell (Hellma Analytics, Essex, U.K.). The wavelength used in CD spectrometer was from 190 to 240 nm with a scanning speed of 200 nm/min, bandwidth and data pitch are 1 and 0.5 nm respectively. CD data are expressed as the mean molar ellipticity [θ] in deg.cm^2.dmol^−1 in corresponding wavelength (nm), which is calculated using the measured ellipticity (θ, in medg) with the equation [θ] = θ/(10 × c × l), ‘c’ refers to the molar concentration of the sample (mol/l) and the term ‘l’ is the cuvette path length (cm). DichroWeb webserver (http://dichroweb.cryst.bbk.ac.uk/html/home.shtml) was used to estimate the α-helix and β-sheet content.
Figure 8 Circular dichroism spectra of OSTI and [Phe^9]-OSTI The CD spectra recorded for OSTI and [Phe^9]-OSTI (100 μM) in (A) 10 mM ammonium acetate water solution and (B) 50% 2,2,2-TFE/10 mM ammonium acetate water solution.

The next series concerns the target Chymotrypsin (Bos taurus, UniProt P00766). Briefly: Chymotrypsin inhibition assay. Type of series: biochemical. The procedure:
Chymotrypsin (10 μl from 0.1 μM stock solution in 1 mM HCl) was added to the wells of a microtitre plate containing substrate (Succinyl–Ala–Ala–Pro–Phe–NHMec, obtained from Bachem, U.K.) (50 μM) and synthetic peptide replicates (0.1–100 μM) in 10 mM phosphate buffer, pH 7.4, containing 2.7 mM KCl and 137 mM NaCl (final volume 210 μl).
as §1
For modest binding inhibition, we first calculated the IC50 from a plot of % inhibition against inhibitor concentration [I]. The data points were fitted to the resulting curve, by non-linear regression analysis, using GraphPad Prism. The IC50 values were then converted into Ki values using the eqn (3), to account for the presence of competing substrate. (3) Ki = IC50/{1 + ([S]/KM)}
This kinetic treatment was applied to the inhibition of tryptase by OSTI and chymotrypsin by [Phe^9]-OSTI. […] The Michaelis constant KM for tryptase against Boc-Phe-Ser-Arg-NHMec was determined to be 227.2 μM, while KM for chymotrypsin against Succinyl–Ala–Ala–Pro–Phe–NHMec was determined to be 38.4 μM. […]

Another series relates to chymase. The conditions noted are these: Lineweaver–Burk double-reciprocal plot; ref [24]; cited from earlier work. The source says:
Tryptase and chymase are atypical serine proteases that are synthesized, stored and released by mast cells. Due to their close involvement in the pathogenesis of inflammation and some other diseases, there have been reports of BBIs possibly having utility in the treatment of such conditions.

Where [2] appears, read: 50% TFE-water, CD 190–240 nm, room temperature (20–25°C), DichroWeb.
Where [3] appears, read: aqueous solution, CD 190–240 nm, room temperature (20–25°C), DichroWeb.

Entries after “also recorded” stand apart in the source; their conditions may differ. Bridge positions count the residues as written; N and C are the ends. Peptide text beside a SMILES is read from it.

T1 sequence (Q15661 31-275): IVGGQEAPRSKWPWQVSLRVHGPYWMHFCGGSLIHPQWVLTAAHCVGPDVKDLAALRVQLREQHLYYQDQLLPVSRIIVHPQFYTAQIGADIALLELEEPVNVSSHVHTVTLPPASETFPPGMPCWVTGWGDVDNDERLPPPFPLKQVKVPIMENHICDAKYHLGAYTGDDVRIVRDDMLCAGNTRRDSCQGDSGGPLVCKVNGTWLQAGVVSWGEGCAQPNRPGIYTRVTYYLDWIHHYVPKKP
Experimental for Tryptase: Tryptase (2.5 μl from 1 mg/ml stock solution, Calbiochem, U.K.), was added to the wells of a microtitre plate containing substrate (Boc-Phe-Ser-Arg-NHMec, obtained from Bachem, U.K.) (50 μM) and synthetic peptide replicates (0.5, 1, 2 and 4 mM) in tryptase assay buffer, pH 7.6, containing 0.05 M Tris, 0.15 M NaCl and 0.2% (w/v) PEG 6000 (final volume 210 μl).
For modest binding inhibition, we first calculated the IC50 from a plot of % inhibition against inhibitor concentration [I]. The data points were fitted to the resulting curve, by non-linear regression analysis, using GraphPad Prism. The IC50 values were then converted into Ki values using the eqn (3), to account for the presence of competing substrate [15]. (3) Ki = IC50/{1 + ([S]/KM)}
In inhibition studies with both these proteases, their respective substrates were used at a fixed concentration [S] of 50 μM. […] The determination of these KM values was carried out using identical buffer and temperature conditions (37°C) as those employed in the inhibition studies with the two synthetic amphibian peptides.

For the molecule `CC[C@H](C)[C@@H]1NC(=O)[C@H](CO)NC(=O)[C@H](CCCCN)NC(=O)[C@H]([C@@H](C)O)NC(=O)[C@H](Cc2c[nH]c3ccccc23)NC(=O)[C@@H](NC(=O)CNC(=O)[C@H](CCCCN)NC(=O)[C@H](CC(C)C)NC(=O)[C@H](C)NC(=O)[C@H](C)N)CSSC[C@@H](C(=O)N[C@@H](Cc2ccccc2)C(N)=O)NC(=O)[C@@H]2CCCN2C(=O)[C@H](CCCCN)NC(=O)[C@@H]2CCCN2C(=O)[C@@H]2CCCN2C1=O` [OSTI, AALKGCWTKSIPPKPCF-amide] (H-AALKGCWTKSIPPKPCF-NH2; disulfide 6-16; N-terminus assumed), the “tryptase inhibition (in words)” value at Tryptase (progress curves, OSTI 0–17.4 μM) is listed as “moderate inhibitor”. For the same molecule, the “inhibition kinetics / mechanism from progress curves” value on Trypsin is listed as “reversible, slow-binding kinetics; also recorded: two-step complexing mechanism”. In series [1] (50% TFE-water, CD), the “β-sheet secondary structure (in words)” value is reported as “low percentage of β-sheet secondary structure”. In series [1] (setting [2]), the random coil content was determined as 47%, the α-helix content is 8% and the β-sheet content came out at 45%. Besides, the “canonical β-turn motif” value in series [1] (aqueous solution, CD) is “did not display canonical β-turn motif”. In series [1] (setting [3]), this molecule displayed a random coil content of 42% and a β-sheet content of 51%.
On to `CC[C@H](C)[C@@H]1NC(=O)[C@H](CO)NC(=O)[C@H](Cc2ccccc2)NC(=O)[C@H]([C@@H](C)O)NC(=O)[C@H](Cc2c[nH]c3ccccc23)NC(=O)[C@@H](NC(=O)CNC(=O)[C@H](CCCCN)NC(=O)[C@H](CC(C)C)NC(=O)[C@H](C)NC(=O)[C@H](C)N)CSSC[C@@H](C(=O)N[C@@H](Cc2ccccc2)C(N)=O)NC(=O)[C@@H]2CCCN2C(=O)[C@H](CCCCN)NC(=O)[C@@H]2CCCN2C(=O)[C@@H]2CCCN2C1=O` [[Phe^9]-OSTI, AALKGCWTFSIPPKPCF-amide] (H-AALKGCWTFSIPPKPCF-NH2; disulfide 6-16), for which the Ki on Chymotrypsin (substrate Succinyl–Ala–Ala–Pro–Phe–NHMec 50 μM, 10 mM phosphate buffer pH 7.4, 2.7 mM KCl, 137 mM NaCl, 37°C, from IC50 with KM 38.4 μM, mean ± S.E.M. of three independent experiments, each performed in duplicate) was found to be 1000 ± 100 nM.
“Boc-Phe-Ser-Arg-NHMec [fluorogenic tryptase substrate, reference compound]”: the Km on Tryptase (substrate of tryptase, identical buffer and temperature conditions (37°C), read-out: Michaelis constant KM, tryptase) amounted to 227 µM.
For “Succinyl–Ala–Ala–Pro–Phe–NHMec [fluorogenic chymotrypsin substrate, reference compound]”, at Chymotrypsin (substrate of chymotrypsin, identical buffer and temperature conditions (37°C), read-out: Michaelis constant KM, chymotrypsin), the Km is 38.4 µM.

B1: soybean BBI: soybean Bowman–Birk protease inhibitor, two-headed protease inhibitor (protein, UniProt P01055 40-110, looked up)
Bowman-Birk type proteinase …: DDESSKPCCDQCACTKSNPPQCRCSDMRLNSCHSACKSCICALSYPAQCFCVDITDFCYEPCKPSEDDKEN
Regarding B1, in the series with chymase, the “mechanism of chymase inhibition” value was “non-competitive mechanism”.
